Data: ChEMBL document CHEMBL1629664, “Oral and parenteral therapeutic options for outpatient urinary infections caused by enterobacteriaceae producing CTX-M extended-spectrum beta-lactamases” (2009)
≈ marks a conversion by molar mass, not a printed value.

What was measured:
Type in all cases: functional
Enterobacteriaceae [1] = assay: Antibacterial activity against beta-lactamase CTX-M ESBL-producing Enterobacteriaceae by agar dilution method
Enterobacteriaceae [2] = assay: Antibacterial activity against beta-lactamase CTX-M ESBL-producing Enterobacteriaceae assessed as percent susceptible isolates by agar dilution method
Enterobacteriaceae [3] = assay: Antibacterial activity against beta-lactamase SHV or TEM ESBL-producing Enterobacteriaceae by agar dilution method
Enterobacteriaceae [4] = assay: Antibacterial activity against beta-lactamase SHV or TEM ESBL-producing Enterobacteriaceae assessed as percent susceptible isolates by agar dilution method
Escherichia coli [5] = assay: Antibacterial activity against beta-lactamase ESBL-producing Escherichia coli by broth microdilution method
Klebsiella sp. = assay: Antibacterial activity against beta-lactamase ESBL-producing Klebsiella sp. assessed as percent susceptible isolates by broth microdilution method
Enterobacteriaceae [6] = assay: Antibacterial activity against beta-lactamase CTX-M ESBL-producing Enterobacteriaceae assessed as percent susceptible isolates by broth microdilution method
Escherichia coli [7] = assay: Antibacterial activity against beta-lactamase ESBL-producing Escherichia coli assessed as percent susceptible isolates by broth microdilution method
Enterobacteriaceae [8] = assay: Antibacterial activity against beta-lactamase SHV or TEM ESBL-producing Enterobacteriaceae by broth microdilution method
Proteus mirabilis = assay: Antibacterial activity against beta-lactamase ESBL-producing Proteus mirabilis assessed as percent susceptible isolates by broth microdilution method
Enterobacteriaceae [9] = assay: Antibacterial activity against beta-lactamase SHV or TEM ESBL-producing Enterobacteriaceae assessed as percent susceptible isolates by broth microdilution method
Enterobacteriaceae [10] = assay: Antibacterial activity against beta-lactamase CTX-M ESBL-producing Enterobacteriaceae by broth microdilution method
Enterobacteriaceae [11] = assay: Antibacterial activity against beta-lactamase SHV or TEM ESBL-producing Enterobacteriaceae by twofold dilution method in presence of beta-lactamase inhibitor clavulanate
Enterobacteriaceae [12] = assay: Antibacterial activity against beta-lactamase SHV or TEM ESBL-producing Enterobacteriaceae by twofold dilution method
Enterobacteriaceae [13] = assay: Antibacterial activity against beta-lactamase CTX-M ESBL-producing Enterobacteriaceae by twofold dilution method
Enterobacteriaceae [14] = assay: Antibacterial activity against beta-lactamase CTX-M ESBL-producing Enterobacteriaceae by twofold dilution method in presence of beta-lactamase inhibitor clavulanate
Enterobacteriaceae [15] = assay: Antibacterial activity against beta-lactamase SHV or TEM ESBL-producing Enterobacteriaceae assessed as percent susceptible isolates by twofold dilution method in presence of beta-lactamase inhibitor clavulanate
Enterobacteriaceae [16] = assay: Antibacterial activity against beta-lactamase CTX-M ESBL-producing Enterobacteriaceae assessed as percent susceptible isolates by twofold dilution method in presence of beta-lactamase inhibitor clavulanate
Enterobacteriaceae [17] = assay: Antibacterial activity against beta-lactamase SHV or TEM ESBL-producing Enterobacteriaceae assessed as percent susceptible isolates by twofold dilution method
Enterobacteriaceae [18] = assay: Antibacterial activity against beta-lactamase CTX-M ESBL-producing Enterobacteriaceae assessed as percent susceptible isolates by twofold dilution method

C[C@@H]1O[C@@H]1P(=O)(O)O [FOSFOMYCIN]
MIC50 (Enterobacteriaceae [1]): 0.5 µg/mL (≈ 3.62 µM) | MIC90 (Enterobacteriaceae [1]): 64 µg/mL (≈ 464 µM) | Activity (Enterobacteriaceae [2]): 91.3% | MIC50 (Enterobacteriaceae [3]): 4 µg/mL (≈ 29 µM) | MIC90 (Enterobacteriaceae [3]): 8 µg/mL (≈ 57.9 µM) | Activity (Enterobacteriaceae [4]): 100%

C[C@@H](O)[C@H]1C(=O)N2C(C(=O)O)=C(S[C@@H]3CN[C@H](C(=O)Nc4cccc(C(=O)O)c4)C3)[C@H](C)[C@H]12 [ERTAPENEM]
MIC90 (Escherichia coli [5]): 0.06 µg/mL (≈ 0.126 µM) | Activity (Klebsiella sp.): 100% | Activity (Enterobacteriaceae [6]): 100% | Activity (Escherichia coli [7]): 100% | MIC50 (Enterobacteriaceae [8]): 0.12 µg/mL (≈ 0.252 µM) | MIC90 (Enterobacteriaceae [8]): 1 µg/mL (≈ 2.1 µM) | Activity (Proteus mirabilis): 100% | Activity (Enterobacteriaceae [9]): 100% | MIC50 (Enterobacteriaceae [10]): 0.06 µg/mL (≈ 0.126 µM) | MIC90 (Enterobacteriaceae [10]): 0.25 µg/mL (≈ 0.526 µM)

CC1(C)S[C@@H]2[C@H](NC(=O)[C@H](N)c3ccc(O)cc3)C(=O)N2[C@H]1C(=O)O [AMOXICILLIN]
MIC50 (Enterobacteriaceae [11]): 32 µg/mL | MIC90 (Enterobacteriaceae [11]): 32 µg/mL | MIC50 (Enterobacteriaceae [12]): 4 µg/mL (≈ 10.9 µM) | MIC90 (Enterobacteriaceae [12]): 4 µg/mL (≈ 10.9 µM) | MIC50 (Enterobacteriaceae [13]): 4 µg/mL (≈ 10.9 µM) | MIC90 (Enterobacteriaceae [13]): 4 µg/mL (≈ 10.9 µM) | MIC50 (Enterobacteriaceae [14]): 32 µg/mL | MIC90 (Enterobacteriaceae [14]): 32 µg/mL | Activity (Enterobacteriaceae [15]): 45.5% | Activity (Enterobacteriaceae [16]): 10.9%

C[C@H]1c2cccc(O)c2C(=O)C2=C(O)[C@]3(O)C(=O)C(C(N)=O)=C(O)[C@@H](N(C)C)[C@@H]3[C@@H](O)[C@@H]21.O [DOXYCYCLINE]
Activity (Enterobacteriaceae [6]): 10.9% | MIC50 (Enterobacteriaceae [8]): 16 µg/mL | MIC90 (Enterobacteriaceae [8]): 16 µg/mL | Activity (Enterobacteriaceae [9]): 18.2% | MIC50 (Enterobacteriaceae [10]): 16 µg/mL | MIC90 (Enterobacteriaceae [10]): 16 µg/mL

C=CC1=C(C(=O)O)N2C(=O)[C@@H](NC(=O)/C(=N\O)c3csc(N)n3)[C@H]2SC1 [CEFDINIR]
MIC50 (Enterobacteriaceae [12]): 4 µg/mL (≈ 10.1 µM) | MIC90 (Enterobacteriaceae [12]): 16 µg/mL (≈ 40.5 µM) | Activity (Enterobacteriaceae [17]): 0% | MIC50 (Enterobacteriaceae [13]): 16 µg/mL (≈ 40.5 µM) | MIC90 (Enterobacteriaceae [13]): 16 µg/mL (≈ 40.5 µM) | Activity (Enterobacteriaceae [18]): 0%

O=C1CN(/N=C/c2ccc([N+](=O)[O-])o2)C(=O)N1 [NITROFURANTOIN]
Activity (Enterobacteriaceae [6]): 73.9% | MIC50 (Enterobacteriaceae [8]): 64 µg/mL (≈ 269 µM) | MIC90 (Enterobacteriaceae [8]): 64 µg/mL (≈ 269 µM) | Activity (Enterobacteriaceae [9]): 45.5% | MIC50 (Enterobacteriaceae [10]): 16 µg/mL (≈ 67.2 µM) | MIC90 (Enterobacteriaceae [10]): 64 µg/mL (≈ 269 µM)

O=C(O)c1cn(C2CC2)c2cc(N3CCNCC3)c(F)cc2c1=O [CIPROFLOXACIN]
Activity (Enterobacteriaceae [6]): 4.3% | MIC50 (Enterobacteriaceae [8]): 32 µg/mL (≈ 96.6 µM) | MIC90 (Enterobacteriaceae [8]): 32 µg/mL (≈ 96.6 µM) | Activity (Enterobacteriaceae [9]): 36.4% | MIC50 (Enterobacteriaceae [10]): 32 µg/mL (≈ 96.6 µM) | MIC90 (Enterobacteriaceae [10]): 32 µg/mL (≈ 96.6 µM)
